Our source for the IC50 values is US20050260730A1, “CDK2/cyclin A crystals and uses thereof” (priority 2003, published 2005).

Where two headings read alike, the source gives them in different places. Non-standard residues stand in square brackets, D forms with d. Residues, ends and D or L forms follow the SMILES beside them. Phe(4-F) = N[C@@H](Cc1ccc(F)cc1)C(=O)O Bounds are passed on as bounds.

One test addresses cyclin A (Homo sapiens, UniProt P20248). Briefly: Competitive cyclin A binding assay.
Another test deals with CDK2/cyclin A (Homo sapiens, UniProt P20248). Briefly: CDK2/cyclin A kinase activity assay. Format: biochemical.
Where [1] appears, read: read-out: IC50 CDK2/cyclin A kinase activity.

cyclin A, sequence (P20248 whole entry): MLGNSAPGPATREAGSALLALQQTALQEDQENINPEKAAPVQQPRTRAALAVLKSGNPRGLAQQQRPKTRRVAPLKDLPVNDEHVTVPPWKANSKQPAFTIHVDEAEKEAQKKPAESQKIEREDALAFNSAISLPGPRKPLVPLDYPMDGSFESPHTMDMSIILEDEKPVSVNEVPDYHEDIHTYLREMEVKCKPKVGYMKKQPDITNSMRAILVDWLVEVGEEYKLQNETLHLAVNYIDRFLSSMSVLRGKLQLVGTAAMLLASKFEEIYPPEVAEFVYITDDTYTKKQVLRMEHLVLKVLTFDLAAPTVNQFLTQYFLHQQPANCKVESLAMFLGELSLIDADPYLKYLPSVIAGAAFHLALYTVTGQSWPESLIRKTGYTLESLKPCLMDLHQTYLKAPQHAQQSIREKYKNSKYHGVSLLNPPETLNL

Take `CC(C)C[C@H](NC(=O)[C@H](CCCNC(=N)N)NC(=O)[C@@H](N)CCCNC(=N)N)C(=O)N[C@@H](Cc1ccc(F)cc1)C(N)=O` [SEQ ID NO: 29, H-Arg-Arg-Leu-—-(p-F-Phe)-NH2] (H-RRL[Phe(4-F)]-NH2): the IC50 at cyclin A came to 19 µM; on CDK2/cyclin A (setting [1]) it was 50 µM. `CC(=O)N[C@@H](CCCN=C(N)N)C(=O)N[C@@H](CCCN=C(N)N)C(=O)N[C@@H](CC(C)C)C(=O)N[C@@H](CC(N)=O)C(=O)N[C@@H](Cc1ccccc1)C(N)=O` [SEQ ID NO: 30, Ac-Arg-Arg-Leu-Asn-Phe-NH2] yielded an IC50 against CDK2/cyclin A of more than 50 µM.

For the molecule `CC(C)C[C@H](NC(=O)[C@H](CCCNC(=N)N)NC(=O)[C@@H](N)CCCNC(=N)N)C(=O)N[C@@H](Cc1ccccc1)C(N)=O` [SEQ ID NO: 20, H-Arg-Arg-Leu-Phe-NH2] (H-RRLF-NH2), the IC50 is 8.1 µM on cyclin A and more than 50 µM at CDK2/cyclin A (setting [1]).
